The test system of one data set is GI and lung NET patients. Details: method as in PMID 26703889. The conditions noted are these: phase III trial; cited from earlier work.
Data set [1] concerns pancreatic NET patients. Details: method as in PMID 21306238. The conditions noted are these: phase III trial; cited from earlier work.
The target in the next data set is VEGFR 3 (Homo sapiens, UniProt P35916). Nature of the data set: kinase selectivity profile. Format: biochemical. An excerpt: (§1) Table 1 Sulfatinib kinase selectivity profile | column: IC50 (μM)
For a further data set, the target named is T1, FLT3 (Homo sapiens, UniProt P36888).
T1 sequence (P36888 27-993): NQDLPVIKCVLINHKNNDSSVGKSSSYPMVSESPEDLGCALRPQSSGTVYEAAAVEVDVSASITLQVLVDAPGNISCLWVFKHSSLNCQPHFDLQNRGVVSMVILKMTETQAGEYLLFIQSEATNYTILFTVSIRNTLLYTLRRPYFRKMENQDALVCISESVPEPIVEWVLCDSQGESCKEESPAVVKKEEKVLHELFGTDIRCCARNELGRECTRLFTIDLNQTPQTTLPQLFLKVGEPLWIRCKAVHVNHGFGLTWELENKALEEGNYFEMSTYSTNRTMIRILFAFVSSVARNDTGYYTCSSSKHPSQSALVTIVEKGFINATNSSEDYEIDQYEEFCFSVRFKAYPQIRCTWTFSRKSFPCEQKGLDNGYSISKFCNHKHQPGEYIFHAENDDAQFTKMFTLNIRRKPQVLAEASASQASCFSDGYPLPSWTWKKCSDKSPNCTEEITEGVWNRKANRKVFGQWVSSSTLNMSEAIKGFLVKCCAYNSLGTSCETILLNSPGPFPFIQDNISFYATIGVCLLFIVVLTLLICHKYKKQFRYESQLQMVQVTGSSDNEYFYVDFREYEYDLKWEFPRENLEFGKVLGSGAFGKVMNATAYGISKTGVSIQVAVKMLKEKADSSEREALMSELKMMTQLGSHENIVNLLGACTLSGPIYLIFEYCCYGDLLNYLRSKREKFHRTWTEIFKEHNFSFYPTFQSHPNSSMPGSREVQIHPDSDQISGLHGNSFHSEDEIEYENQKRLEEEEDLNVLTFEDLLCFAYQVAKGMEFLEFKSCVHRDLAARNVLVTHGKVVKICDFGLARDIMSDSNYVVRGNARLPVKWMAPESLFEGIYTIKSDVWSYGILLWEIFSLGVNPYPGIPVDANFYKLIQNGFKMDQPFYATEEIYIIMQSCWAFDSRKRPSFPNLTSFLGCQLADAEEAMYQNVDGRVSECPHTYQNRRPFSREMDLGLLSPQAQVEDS
The data set is described as follows: kinase selectivity profile. Type of data set: biochemical.
Source text: as §1

In the next data set the target is CSF1R (Homo sapiens, UniProt P07333). Nature of the data set: kinase selectivity profile. Format: biochemical.
Source text: as §1

Another data set deals with VEGFR 1 (Homo sapiens, UniProt P17948). Nature of the data set: kinase selectivity profile. Format: biochemical.
Source text: as §1

The target in the next data set is TrkB (Homo sapiens, UniProt Q16620). Nature of the data set: kinase selectivity profile. Format: biochemical.
Source text: as §1

The next data set concerns the target VEGFR 2 (Homo sapiens, UniProt P35968). Nature of the data set: kinase selectivity profile. Type of data set: biochemical.
Source text: as §1

For another data set, the target named is FGFR1 (Homo sapiens, UniProt P11362). Nature of the data set: kinase selectivity profile. Format: biochemical.
Source text: as §1

Data set [2] deals with patients with advanced solid tumors. The data set is described as follows: phase I safety and tolerability (AEs, DLTs, MTD). The note with it: doses of 50-350 mg QD and 125-150 mg BID; up to 350 mg QD (formulation 2). Type of data set: in vivo. An excerpt:
The primary objectives of this open-label, first-in-human phase I study (NCT02133157) were to determine MTD and the phase II dose of sulfatinib, and to evaluate the safety of sulfatinib in patients with advanced solid tumors. The secondary and exploratory objectives included evaluation of sulfatinib PK and preliminary anti-tumor activity. The study consisted of a dose-escalation phase (split into a single-dose period and continuous-dose period) and a tumor-specific expansion phase. Two sulfatinib formulations were used during the study: formulation 1 (5, 25, and 50 mg capsules) and formulation 2 (50 and 200 mg capsules). […]
During the dose-escalation phase, patients were given a single dose of sulfatinib and monitored for AEs for seven days. […] DLTs were assessed at the end of the 28-day period. […]
The study used a modified Fibonacci 3+3 dose-escalation design with at least three evaluable patients treated with each dose. […] If two or more of the first three or overall six patients experienced a DLT, the MTD was considered exceeded and the previous lower dose would be re-assessed to determine the MTD. […]
Safety and tolerability were assessed in all patients who received at least one dose of sulfatinib throughout the study. AEs were recorded throughout the study. […]

The target in another data set is 278 other kinases. Nature of the data set: kinase selectivity profile (broad kinase screening). Type of data set: biochemical.
Source text: as §1

Another data set relates to advanced solid tumors. Nature of the data set: tumor response by RECIST Version 1.0. Format: in vivo, human. How it is done: Patients with NETs were enrolled with priority as preliminary efficacy was shown in these tumor types in the dose-escalation stage. Tumor response (an exploratory endpoint) was assessed according to RECIST Version 1.0 and measured at baseline, at the end of every treatment cycle in the first four cycles, and every other cycle thereafter. […] Calculations of the following parameters were made: ORR (CR + PR); SD defined as ≥1 assessment of SD at least six weeks after study entry; DCR (CR + PR + SD). TTR, DoR and PFS were analyzed in the subgroup of patients with NET.

Data set [3] deals with pancreatic NET patients. Details: method as in PMID 21306237. The note with it: phase III trial; cited from earlier work.
Setting [4] is: three NET patients who progressed on prior VEGFR kinase inhibitors.

Where two headings read alike, the source gives them in different places. Bounds are passed on as bounds.

Sequence of VEGFR 1 (P17948 27-1338): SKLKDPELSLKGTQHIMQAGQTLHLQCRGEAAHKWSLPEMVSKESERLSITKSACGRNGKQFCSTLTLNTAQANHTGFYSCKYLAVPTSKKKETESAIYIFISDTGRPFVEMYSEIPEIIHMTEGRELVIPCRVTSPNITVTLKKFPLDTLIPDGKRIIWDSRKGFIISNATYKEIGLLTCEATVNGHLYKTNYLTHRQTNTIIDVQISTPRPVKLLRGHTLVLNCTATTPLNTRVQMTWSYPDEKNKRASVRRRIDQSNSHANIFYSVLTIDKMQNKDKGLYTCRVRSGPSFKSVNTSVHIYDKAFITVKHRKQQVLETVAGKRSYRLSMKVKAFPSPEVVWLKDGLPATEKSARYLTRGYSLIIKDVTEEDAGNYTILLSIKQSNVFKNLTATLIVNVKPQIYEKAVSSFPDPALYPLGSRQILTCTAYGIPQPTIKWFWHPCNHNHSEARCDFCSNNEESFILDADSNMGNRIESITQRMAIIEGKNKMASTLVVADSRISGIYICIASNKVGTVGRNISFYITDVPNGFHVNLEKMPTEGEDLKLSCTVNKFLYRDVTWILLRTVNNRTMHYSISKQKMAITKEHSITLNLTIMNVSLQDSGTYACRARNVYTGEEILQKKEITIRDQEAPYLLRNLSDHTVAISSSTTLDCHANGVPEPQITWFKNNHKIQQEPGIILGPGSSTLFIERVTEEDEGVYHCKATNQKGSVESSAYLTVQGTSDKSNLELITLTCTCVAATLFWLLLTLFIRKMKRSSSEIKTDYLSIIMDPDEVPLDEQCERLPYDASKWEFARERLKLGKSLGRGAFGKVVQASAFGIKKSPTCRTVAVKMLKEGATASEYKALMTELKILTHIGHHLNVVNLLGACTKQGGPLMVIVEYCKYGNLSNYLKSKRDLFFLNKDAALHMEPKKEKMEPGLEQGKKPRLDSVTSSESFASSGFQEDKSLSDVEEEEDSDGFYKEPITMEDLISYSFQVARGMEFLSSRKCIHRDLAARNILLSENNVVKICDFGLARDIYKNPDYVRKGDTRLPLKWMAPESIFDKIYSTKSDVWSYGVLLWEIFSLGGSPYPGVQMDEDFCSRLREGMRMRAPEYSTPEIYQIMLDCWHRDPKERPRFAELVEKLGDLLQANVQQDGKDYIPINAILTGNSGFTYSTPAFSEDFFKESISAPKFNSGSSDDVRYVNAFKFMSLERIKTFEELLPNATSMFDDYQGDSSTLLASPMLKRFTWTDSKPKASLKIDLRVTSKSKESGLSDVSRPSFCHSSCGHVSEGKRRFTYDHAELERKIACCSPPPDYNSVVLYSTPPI
Sequence of VEGFR 2 (P35968 20-1356): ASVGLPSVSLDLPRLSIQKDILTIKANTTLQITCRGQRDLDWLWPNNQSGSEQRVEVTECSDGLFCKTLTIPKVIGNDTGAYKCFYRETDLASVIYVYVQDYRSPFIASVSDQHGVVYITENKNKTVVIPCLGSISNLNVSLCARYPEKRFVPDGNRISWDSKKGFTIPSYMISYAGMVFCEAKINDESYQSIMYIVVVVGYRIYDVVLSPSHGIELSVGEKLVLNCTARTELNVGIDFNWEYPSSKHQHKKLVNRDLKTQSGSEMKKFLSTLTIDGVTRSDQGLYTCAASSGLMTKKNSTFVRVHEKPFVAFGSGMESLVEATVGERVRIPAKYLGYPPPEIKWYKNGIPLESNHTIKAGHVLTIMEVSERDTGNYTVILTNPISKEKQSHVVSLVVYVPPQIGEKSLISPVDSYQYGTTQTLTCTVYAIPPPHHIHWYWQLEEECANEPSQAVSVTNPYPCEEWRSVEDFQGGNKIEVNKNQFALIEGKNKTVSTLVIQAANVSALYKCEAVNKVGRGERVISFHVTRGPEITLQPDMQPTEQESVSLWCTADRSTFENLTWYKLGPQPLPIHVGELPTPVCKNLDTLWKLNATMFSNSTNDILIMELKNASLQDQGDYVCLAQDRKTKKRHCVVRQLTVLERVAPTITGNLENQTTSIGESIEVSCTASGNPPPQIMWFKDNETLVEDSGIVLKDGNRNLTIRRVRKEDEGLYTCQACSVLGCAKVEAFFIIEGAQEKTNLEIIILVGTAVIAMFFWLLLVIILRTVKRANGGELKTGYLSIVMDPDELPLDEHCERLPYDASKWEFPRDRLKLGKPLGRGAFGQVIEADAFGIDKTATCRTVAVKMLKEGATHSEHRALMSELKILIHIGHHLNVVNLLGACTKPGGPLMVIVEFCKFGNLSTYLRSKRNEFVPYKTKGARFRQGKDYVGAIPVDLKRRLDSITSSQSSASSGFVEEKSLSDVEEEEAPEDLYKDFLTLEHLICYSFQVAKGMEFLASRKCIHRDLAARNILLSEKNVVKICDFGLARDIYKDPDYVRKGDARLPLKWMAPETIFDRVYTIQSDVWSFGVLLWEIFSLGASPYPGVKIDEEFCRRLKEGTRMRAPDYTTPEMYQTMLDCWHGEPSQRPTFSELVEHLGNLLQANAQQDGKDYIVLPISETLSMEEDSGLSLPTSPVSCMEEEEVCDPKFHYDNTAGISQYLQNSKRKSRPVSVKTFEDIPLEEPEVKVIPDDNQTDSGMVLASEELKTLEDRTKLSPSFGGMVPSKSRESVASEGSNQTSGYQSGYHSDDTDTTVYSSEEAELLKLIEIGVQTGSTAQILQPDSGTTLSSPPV
Sequence of FGFR1 (P11362 22-822): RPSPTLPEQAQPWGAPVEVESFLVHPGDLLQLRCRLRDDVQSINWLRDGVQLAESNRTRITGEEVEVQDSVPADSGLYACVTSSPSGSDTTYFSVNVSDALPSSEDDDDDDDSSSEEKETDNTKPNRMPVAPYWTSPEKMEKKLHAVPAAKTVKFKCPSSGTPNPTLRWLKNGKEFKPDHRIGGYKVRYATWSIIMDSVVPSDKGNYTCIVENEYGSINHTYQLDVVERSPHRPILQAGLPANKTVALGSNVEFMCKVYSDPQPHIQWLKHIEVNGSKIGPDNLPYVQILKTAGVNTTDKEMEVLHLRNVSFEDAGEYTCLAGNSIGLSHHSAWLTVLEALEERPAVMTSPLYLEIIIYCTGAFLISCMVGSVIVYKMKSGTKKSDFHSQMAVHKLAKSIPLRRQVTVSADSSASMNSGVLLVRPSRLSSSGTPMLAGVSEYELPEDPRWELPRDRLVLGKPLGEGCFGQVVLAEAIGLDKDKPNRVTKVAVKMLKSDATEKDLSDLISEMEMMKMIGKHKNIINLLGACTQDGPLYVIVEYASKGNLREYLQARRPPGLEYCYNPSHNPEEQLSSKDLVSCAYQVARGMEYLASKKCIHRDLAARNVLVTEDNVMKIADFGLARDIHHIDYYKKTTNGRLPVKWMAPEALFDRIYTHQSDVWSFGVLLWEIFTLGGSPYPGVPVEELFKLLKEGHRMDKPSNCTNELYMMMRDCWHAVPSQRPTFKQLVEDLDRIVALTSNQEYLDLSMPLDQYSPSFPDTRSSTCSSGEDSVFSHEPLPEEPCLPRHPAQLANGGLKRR
Sequence of CSF1R (P07333 20-972): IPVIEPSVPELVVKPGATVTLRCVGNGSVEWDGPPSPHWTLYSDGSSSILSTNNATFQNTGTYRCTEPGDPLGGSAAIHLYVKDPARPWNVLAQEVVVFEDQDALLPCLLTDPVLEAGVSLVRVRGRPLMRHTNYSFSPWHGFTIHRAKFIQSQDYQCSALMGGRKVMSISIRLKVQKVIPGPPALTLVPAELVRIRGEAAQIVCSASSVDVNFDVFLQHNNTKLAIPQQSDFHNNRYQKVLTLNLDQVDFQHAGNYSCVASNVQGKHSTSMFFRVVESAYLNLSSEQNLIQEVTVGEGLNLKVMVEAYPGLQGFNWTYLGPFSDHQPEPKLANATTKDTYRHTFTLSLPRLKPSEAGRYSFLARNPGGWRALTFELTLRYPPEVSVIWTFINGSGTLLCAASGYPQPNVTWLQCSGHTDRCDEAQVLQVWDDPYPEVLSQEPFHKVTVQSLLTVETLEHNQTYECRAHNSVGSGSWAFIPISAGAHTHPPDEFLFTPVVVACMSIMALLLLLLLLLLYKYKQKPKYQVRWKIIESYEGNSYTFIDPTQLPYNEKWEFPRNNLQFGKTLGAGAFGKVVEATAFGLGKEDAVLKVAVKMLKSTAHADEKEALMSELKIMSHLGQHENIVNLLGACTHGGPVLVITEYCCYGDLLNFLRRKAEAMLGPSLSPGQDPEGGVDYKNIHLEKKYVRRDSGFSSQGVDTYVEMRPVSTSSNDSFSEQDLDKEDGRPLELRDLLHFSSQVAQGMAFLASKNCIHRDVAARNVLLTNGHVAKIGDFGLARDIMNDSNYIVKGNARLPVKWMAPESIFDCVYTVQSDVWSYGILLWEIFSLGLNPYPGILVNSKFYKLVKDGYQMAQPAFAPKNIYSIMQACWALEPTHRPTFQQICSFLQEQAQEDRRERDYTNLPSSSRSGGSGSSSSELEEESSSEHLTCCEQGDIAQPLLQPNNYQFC

`CO[C@H]1C[C@@H]2CC[C@@H](C)[C@@](O)(O2)C(=O)C(=O)N2CCCC[C@H]2C(=O)O[C@H]([C@H](C)C[C@@H]2CC[C@@H](OCCO)[C@H](OC)C2)CC(=O)[C@H](C)/C=C(\C)[C@@H](O)[C@@H](OC)C(=O)[C@H](C)C[C@H](C)/C=C/C=C/C=C/1C` [everolimus]: in the data set with GI and lung NET patients, the ORR is listed as 2% and the “median PFS” value is 11.0 months. Also, in the data set on pancreatic NET patients [1], the ORR was 5% and the “median PFS” value is 11.0 months.

Consider `Cc1cc2cc(Oc3ccnc(Nc4cccc(CS(=O)(=O)NCCN(C)C)c4)n3)ccc2[nH]1` [Sulfatinib], for which the IC50 at VEGFR 3 was found to be 1 nM; against FLT3 it was 67 nM; against CSF1R it was 4 nM; on VEGFR 1, 2 nM; against TrkB, 41 nM; against VEGFR 2, 24 nM. The values for the IC50 against FGFR1 and at 278 other kinases were 15 nM and over 150 nM, respectively. Besides, the “maximum tolerated dose (MTD)” value in data set [2] is on record as “not reached”. In addition, the “patients with confirmed PR” value in the data set with advanced solid tumors (all 77 patients) is given as “Nine”. Besides, the “patients with sustainable SD” value in the data set on advanced solid tumors (all 77 patients) worked out at 23. For the same compound, the “objective response rate (ORR)” value in the data set on advanced solid tumors (all 77 patients (9/77)) came to 11.7%. Also, the “disease control rate (DCR)” value in the data set on advanced solid tumors (all 77 patients (32/77)) is on record as 41.6%. Besides, the “patients achieving PR” value in the data set on advanced solid tumors (setting [4]) is recorded as “one”. Besides, in the data set on advanced solid tumors (setting [4]), the “patients achieving SD” value is “two”.

Take `CCN(CC)CCNC(=O)c1c(C)[nH]c(/C=C2\C(=O)Nc3ccc(F)cc32)c1C` [sunitinib]: in the data set on pancreatic NET patients [3], the ORR was 9.3% and the PFS is recorded as 11.0 months.

A word on the IC50: it is the point on the concentration scale where inhibition reaches its midpoint. A low value points to greater potency in that assay.

The values are drawn from publication PMC5522050, “Sulfatinib, a novel kinase inhibitor, in patients with advanced solid tumors: results from a phase I study” (Oncotarget, 2017).
